Test [1] in a line: dynein cargo transport inhibitors, potency, dose response, imaging, high-content imaging (AID 463136).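 Also: mouse mammary adenocarcinoma 3617.4 cells expressing GFP-tagged rat glucocorticoid receptor.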 The note with it: HCS imaging, dynein-mediated cargo transport inhibition; inhibition at max concentration; at 50 µM; stronger effect = higher value.
Test [2] deals with HCS imaging, dynein-mediated cargo transport inhibition. Described as above.

The text below walks through data of PubChem BioAssay AID463136 (University of Pittsburgh Molecular Library Screening Center, 2010).

Results filed as inconclusive are left out. The source made the active and inactive calls. No rule for the calls is given here. Where only a bound is given, the exact number is not on record here.

For orientation: inhibition means the drop in the measured response relative to a control, in per cent. In general, IC50 refers to the point on the concentration scale where inhibition reaches its midpoint. Take `O=C(CN(c1cccc(C(F)(F)F)c1)S(=O)(=O)c1ccc(Cl)c([N+](=O)[O-])c1)NCc1ccccc1`: the inhibition in test [1] was 15.7%. Also, in test [2], the IC50 was > 50 µM (inactive).
As for `Nc1nc(Sc2c([N+](=O)[O-])cc(C(F)(F)F)cc2[N+](=O)[O-])n[nH]1`, the inhibition in test [1] worked out at 44.1%. Also, in test [2], the half-maximal inhibitory concentration (IC50) was 21.9 µM.
The corresponding values for `CN(C)CCCN(C(=O)CCOc1ccccc1)c1nc2c(F)cccc2s1` are 30.5% and > 50 µM (inactive).
The corresponding values for `CC1CCN(C(=O)c2ccc3c(Cl)c4c(nc3c2)CCCC4)CC1` are 76.6% and 21.4 µM.
The corresponding values for `Cc1cc(C)c(S(=O)(=O)ON2C(=O)c3ccccc3C2=O)cc1C` are 10.5% and > 50 µM (inactive).
Take `O=C(OCn1ncc(Br)c(Br)c1=O)c1ccc(F)cc1`: the inhibition in test [1] was 55%. In addition, in test [2], the IC50 is 7.52 µM.
The corresponding values for `Cc1[nH]c2ccccc2c1/C=N/Nc1ccc([N+](=O)[O-])cc1` are 132% and 24.8 µM.
The corresponding values for `CCc1ccc(N2C(=O)NC(=O)/C(=C\C=C\c3ccco3)C2=O)cc1` are 165% and 27.5 µM.
The corresponding values for `Cc1cc(-c2n[nH]c(=S)n2/N=C/C(Br)=C/c2ccccc2)n[nH]1` are 82.9% and 16.5 µM.
In the case of `Cc1cc(Cl)n2c(nc3cc(F)c(F)cc32)c1C#N`, the inhibition in test [1] is 36.6%. Moreover, in test [2], the IC50 was 25.5 µM.
On to `O=C(/C=C/c1cccnc1)/C=C/c1cccnc1`, for which the inhibition in test [1] is 88.7%. In addition, the IC50 in test [2] was 3.09 µM.
The corresponding values for `CC(C)Cn1c([N+](=O)[O-])nc2c1c(=O)[nH]c(=O)n2C` are 83.8% and 5.26 µM.
The corresponding values for `Nc1c(C(=O)N/N=C/c2ccc(F)cc2)oc2nc(-c3ccccc3)cc(-c3ccco3)c12` are 40.9% and > 50 µM (inactive).
The corresponding values for `CCOc1ccc(CN(C)C(=O)CCl)cc1` are 85.8% and 10.2 µM.
With `O=C(c1nnsc1S(=O)(=O)c1ccc(Cl)cc1)N1CCOCC1`, the inhibition in test [1] was 60.5%. In test [2], the concentration for half-maximal inhibition (IC50) is 5.38 µM.
The corresponding values for `CN1CCN(C2=C(Cl)C(=O)C(c3cnc(N4CCCCC4)s3)=C(Cl)C2=O)CC1` are 94.7% and 33.3 µM.
The corresponding values for `O=C(CCl)N(c1ccccc1)c1ccccc1` are 61.3% and 14.2 µM.
Consider `COc1ccc(N2C(=O)CC(Sc3ncn[nH]3)C2=O)c(OC)c1` (centres undefined), for which the inhibition in test [1] worked out at 5.17%. In addition, in test [2], the IC50 was > 50 µM (inactive).
As to `O=S(=O)(c1ccccc1)c1ncc(C(F)(F)F)cc1Cl`, the inhibition in test [1] amounted to 79.3%. Besides, the half-inhibitory concentration (IC50) in test [2] was 8.14 µM.
The corresponding values for `CCC(=O)Nc1cccc(C(=O)/C=C/c2ccc(F)cc2)c1` are 74.9% and 34.1 µM.
The corresponding values for `Clc1ccc(-c2nnc(Sc3nc4ccccc4o3)c3ccccc23)cc1` are 83% and 39.3 µM.
The corresponding values for `CCCCc1c(C)c(C#N)c2nc3ccccc3n2c1Cl` are -60.6% and > 50 µM (inactive).
As for `Cc1nc([N+](=O)[O-])c(Br)n1CC(=O)c1ccc2ccccc2c1`, the inhibition in test [1] is 81.3%. Also, the 50% inhibitory concentration (IC50) in test [2] is 5.15 µM.
The corresponding values for `CC(=O)n1cc(N(C(=O)CCl)c2ccc(C)cc2)c2ccccc21` are 68.7% and 16.8 µM.
The corresponding values for `CCOC(=O)c1c(-n2c(C)cc(C=C3C(=O)NC(=S)NC3=O)c2C)sc2c1CCCC2` are 78.1% and 5.75 µM.
The corresponding values for `CCOc1cc(/C=C\[N+](=O)[O-])ccc1OCC(=O)N1CCOCC1` are 76.4% and 37.4 µM.
On to `Cc1ccc(C)c2nc3sc(C(=O)N4CCCc5ccccc54)c(N)c3cc12`, for which the inhibition in test [1] was determined as 34.8%. In test [2], the IC50 was > 50 µM (inactive).
